Results reported in paper PMC8224038, “Anti-Leukemic Properties of Aplysinopsin Derivative EE-84 Alone and Combined to BH3 Mimetic A-1210477” (Marine Drugs, 2021).
Like-named read-outs stand apart in the source and are kept apart here.

What was measured:
K562 cells [1] = assay: Trypan blue exclusion test, proliferation (GI50); format: cell-based, human; settings: concentrations up to 50 µM; 24, 48, 72 h
Method: (§1) Cell proliferation and viability were assessed by the trypan blue exclusion method (Lonza), and viable cells were counted using a hematocytometer (Marienfeld, Lauda-Königshofen, Germany). Differential toxicity was calculated by comparing the viability of RPMI 1788 cells to the viability of cancer cells (normal/cancer cells). The difference in viability was expressed in terms of fold change.

K562 cells [2] = assay: Trypan blue exclusion test, viability; format: cell-based, human; settings: for viability of K562 cells: concentrations up to 50 µM, 24, 48, 72 h
Method: as §1

K562 cells [3] = assay: Cell cycle analysis (PI, FACS); format: cell-based, human; settings: Celecoxib 40 μM
Method: Cells were collected and fixed in 70% ethanol. DNA was stained with propidium iodide (PI) solution (1 μg/mL, Sigma-Aldrich, St. Louis, MO, USA) in 1XPBS (Biosesang, Seongnam, Korea) for 30 min at 37 °C, supplemented with RNase A (100 μg/mL, Roche, Basel, Switzerland). Samples were analyzed by flow cytometry using the FACSCalibur^TM system, Becton Dickinson (BD) Biosciences (San Jose, CA, USA). Data were recorded statistically (10,000 events/sample) using the Cell Quest software (BD Biosciences) and analyzed using Flow-Jo 8.8.5 software (Tree Star, Inc., Ashland, OR, USA).

K562IR cells = assay: Trypan blue exclusion test, viability; format: cell-based; settings: Homo sapiens, A-1210477 20 µM, 24 h
Method: as §1

K562 cells [4] = assay: Hoechst/PI staining by fluorescent microscopy; format: cell-based, human; settings: K562, 24 h, A-1210477 10 µM alone (Figure 7D)
From the text: (§2) The percentage of apoptotic cells was quantified as the fraction of cells showing fragmented nuclei, as assessed by fluorescence microscopy (Nikon, Tokyo, Japan) after staining with Hoechst 33342 (Sigma-Aldrich) and propidium iodide (Sigma-Aldrich). In addition, apoptosis was confirmed by Annexin V APC (Biolegend, 640919)/propidium iodide (BD Biosciences, 556547) staining and fluorescence-activated cell sorter (FACS) analysis according to the manufacturer protocol (BD Biosciences, 556547).

K562 cells [5] = assay: Annexin V APC/PI staining quantified by FACS; format: cell-based, human
From the text: as §2

zebrafish embryos = assay: Zebrafish toxicity; settings: 24 h exposure
Method: For toxicity assays, embryos were treated with 0.003% phenylthiourea (PTU) 14 h before the assay to remove pigmentation. Then, 2 h before the assay, the embryo’s shell was eliminated and then treated for up to 24 h with aplysinopsin compounds at indicated concentrations in 24-well plates. Viability and abnormal development were assessed after 24 h of treatment under light microscopy (Carl Zeiss Stereomicroscope DV4, Seoul, Korea). Pictures were taken by fixing embryos onto a glass slide with 3% methylcellulose (Sigma-Aldrich).

RPMI 1788 [6] = assay: Trypan blue exclusion test, viability (IC50) in noncancerous cells; format: cell-based, human; settings: for IC50: read-out: IC50 (50% cell death)
Method: as §1

RPMI 1788 [7] = assay: Trypan blue exclusion test, proliferation (GI50) in noncancerous cells; format: cell-based, human
Method: as §1

[8] = K562, 24 h, A-1210477 10 μM, with z-VAD-fmk (50 μM)
[9] = K562, 24 h, Ima 1 μM, with z-VAD-fmk (50 μM)

COc1ccc2c(c1)c(C(=O)C(=O)NNC(=O)CC#N)cn2Cc1ccc(Cl)cc1Cl [EE-92, N′-(2-Cyanoacetyl)-2-(1-(2,4-Dichlorobenzyl)-5-Methoxy-1H-Indol-3-yl)-2-Oxoacetohydrazide]
overall growth of K562 cells (K562 cells [1]): only weakly affected | viability of K562 cells (K562 cells [2]): only weakly affected | melting point: 242 to 244 °C

Cc1ccc(-c2cc(C(F)(F)F)nn2-c2ccc(S(N)(=O)=O)cc2)cc1 [Celecoxib, reference compound]
G1 cell cycle phase (K562 cells [3]; K562, 48 h): 64.77 ± 3.09% | G2/M cell cycle phase (K562 cells [3]; K562, 48 h): 17.44 ± 2.13% | S cell cycle phase (K562 cells [3]; K562, 48 h): 15.00 ± 0.93% | Sub-G1 cell cycle phase (K562 cells [3]; K562, 48 h): 2.79 ±1.90% | G1 cell cycle phase (K562 cells [3]; K562, 72 h): 68.43 ± 4.67% | G2/M cell cycle phase (K562 cells [3]; K562, 72 h): 16.96 ± 3.04% | S cell cycle phase (K562 cells [3]; K562, 72 h): 11.20 ± 2.37% | Sub-G1 cell cycle phase (K562 cells [3]; K562, 72 h): 3.41 ± 2.04%

Cc1nn(C)c(COc2ccc(N3CCN(S(=O)(=O)N(C)C)CC3)cc2)c1-c1cccc2c(CCCOc3cccc4ccccc34)c(C(=O)O)n(CCN3CCOCC3)c12 [Compound A-1210477, reference compound]
viability at 20 µM (K562IR cells): 73 ± 3.6% | apoptotic cell death (K562 cells [4]): about 14.5% | AnnV+/PI+ (%) (K562 cells [5]; K562, 24 h, A-1210477 10 μM): 4.73 ± 0.17% | AnnV+/PI− (%) (K562 cells [5]; K562, 24 h, A-1210477 10 μM): 9.31 ± 1.78% | Combined cell death (%) (K562 cells [5]; K562, 24 h, A-1210477 10 μM): 14.04 ± 3.24% | AnnV+/PI+ (%) (K562 cells [5]; [8]): 2.81 ± 0.21% | AnnV+/PI− (%) (K562 cells [5]; [8]): 6.04 ± 0.99% | Combined cell death (%) (K562 cells [5]; [8]): 8.85 ± 2.28% | viability at 10 µM (K562 cells [2]; Homo sapiens, K562, A-1210477 10 µM, 24 h): 79.3 ± 1.5%

N#CCC(=O)NNC(=O)C(=O)c1cn(Cc2ccccc2)c2ccccc12 [EE-31, 2-(1-Benzyl-1H-Indol-3-yl)-N′-(2-Cyanoacetyl)-2-Oxoacetohydrazide]
overall growth of K562 cells (K562 cells [1]): only weakly affected | viability of K562 cells (K562 cells [2]): only weakly affected | melting point: 264 to 266 °C

Cc1ccc(NC(=O)c2ccc(CN3CCN(C)CC3)cc2)cc1Nc1nccc(-c2cccnc2)n1 [Ima, Imatinib, reference compound]
AnnV+/PI+ (%) (K562 cells [5]; K562, 24 h, Ima 1 μM): 6.97 ± 0.88% | AnnV+/PI− (%) (K562 cells [5]; K562, 24 h, Ima 1 μM): 37.77 ± 4.07% | Combined cell death (%) (K562 cells [5]; K562, 24 h, Ima 1 μM): 44.74 ± 21.78% | AnnV+/PI+ (%) (K562 cells [5]; [9]): 2.93 ± 0.15% | AnnV+/PI− (%) (K562 cells [5]; [9]): 10.86 ± 3.57% | Combined cell death (%) (K562 cells [5]; [9]): 13.79 ± 5.60% | AnnV+/PI+ (%) (K562 cells [5]; K562, Ima 1 μM (Figure 3B)): 31.27 ± 5.24% | AnnV+/PI− (%) (K562 cells [5]; K562, Ima 1 μM (Figure 3B)): 51.77 ± 2.29% | Combined cell death (%) (K562 cells [5]; K562, Ima 1 μM (Figure 3B)): 83.03 ± 14.50%

(Z)-5-((1H-Indol-3-yl)Methylene)-1,3-Dimethylimidazolidine-2,4-Dione [EE-115]
overall growth of K562 cells (K562 cells [1]): only weakly affected | viability of K562 cells (K562 cells [2]): only weakly affected | growth (relative body length) of zebrafish (zebrafish embryos; concentrations up to 100 µM): did not affect | survival rate of zebrafish (zebrafish embryos; concentrations up to 100 µM): did not affect | morphological changes of zebrafish (zebrafish embryos; embryos 24 hpf, different concentrations): No significant morphological changes | IC50 (RPMI 1788 [6]; RPMI 1788, 24 h): > 50 µM | IC50 (RPMI 1788 [6]; RPMI 1788, 48 h): > 50 µM | IC50 (RPMI 1788 [6]; RPMI 1788, 72 h): > 50 µM | viability of RPMI 1788 cells (RPMI 1788 [6]; up to 50 µM, Figure S4B): reduced the viability | GI50 (RPMI 1788 [7]; RPMI 1788, 24 h): > 50 µM | GI50 (RPMI 1788 [7]; RPMI 1788, 48 h): 30.4 ± 1.95 µM | GI50 (RPMI 1788 [7]; RPMI 1788, 72 h): 27.7 ± 2.3 µM

COc1ccc2c(c1)c(C(=O)C(=O)NNC(=O)CC#N)cn2Cc1ccccc1 [EE-80, 2-(1-Benzyl-5-Methoxy-1H-Indol-3-yl)-N′-(2-Cyanoacetyl)-2-Oxoacetohydrazide]
overall growth of K562 cells (K562 cells [1]): only weakly affected | viability of K562 cells (K562 cells [2]): only weakly affected | melting point: 199 to 201 °C
